Data from EP4775574A1, “FURAN RING-CONTAINING COMPOUND, PHARMACEUTICAL COMPOSITION THEREOF, AND USE THEREOF” (Wuhan Xirui Pharmaceutical Technology Co., Ltd, priority 2023, dated 2025).
Where two headings read alike, the source gives them in different places. One block for each molecule: values may come before it.

Legend:
[1] = Pharmacokinetic determination in SD rats; format: in vivo; conditions: rat, po, gavage 10 mg/kg, plasma; for half-life: read-out: Half-life t1/2 (converted); for Cmax: read-out: Peak concentration Cmax; for Tmax: read-out: Time to peak Tmax
Protocol: SD rats were used as test animals to study the pharmacokinetic behavior in rat plasma after oral administration of the compound example of the present disclosure at a dose of 10 mg/kg.
Male SPF-grade SD rats, with body weight (200 ± 20) g.
Drug preparation: The drug concentration was prepared as 1 mg/mL, and the preparation solvent was Tween80 + 0.5% MC (v/v 1:99).
Male SPF-grade SD rats were administered by gavage after adaptive feeding for 3-4 days, with an administration dose of 10 mg/kg and an administration volume of 10 mL/kg.
Blood samples were collected from rats before administration (0 h) and after administration at 0.5 h, 1 h, 1.5 h, 2 h, 3 h, 4 h, 6 h, 8 h, 10 h, 12 h, and 24 h. Blood, approximately 0.2 mL, was collected by retro-orbital puncture and placed into EDTA-K2 anticoagulant tubes with labels. After blood collection, the tubes were gently and completely inverted three times to mix with the anticoagulant. The samples were then immediately placed in an ice-water bath and centrifuged at 4500 rpm for 10 min at 4°C. After centrifugation, the plasma was promptly aliquoted into EP tubes with corresponding labels and stored in a -80°C freezer.
After administration, 20 µL of rat plasma was taken and placed into a 96-deep-well plate pre-filled with 20 µL of internal standard working solution. Methanol (400 µL) as the precipitating agent was added, vortexed for 10 min, and centrifuged at 4000 rpm for 15 min. A supernatant of 200 µL was transferred into another 96-deep-well plate pre-filled with 200 µL of ultrapure water, vortexed for 5 min, and centrifuged at 4000 rpm for 3 min. A supernatant of 5 µL was taken for LC-MS/MS analysis of plasma drug concentration.
The main pharmacokinetic parameters were calculated by WinNonlin 7.0, and the pharmacokinetic experimental results of rats are shown in Table 4 below. Table 4: Pharmacokinetic experimental results of rats

[2] = target: Nav1.2 (Homo sapiens, UniProt Q99250); experiment: Sodium channel selectivity test, patch-clamp, Nav1.2; format: cell-based; conditions: read-out: Nav1.2 Inhibition rate (%)
From the text: (§1) Test Example 3: Selectivity test of the compounds of the present disclosure on sodium channels • 1. Experimental objective: The effects of the compounds on the current of the voltage-gated sodium channel (NaV) subtypes 1.1-1.7 were detected by patch-clamp technique • 2. Experimental materials and instruments • 2.1 Cell lines: CHO/HEK293 cell lines stably expressing Nav1.1-1.7 sodium channels, constructed in-house by the laboratory of Beijing ICE Bioscience Co., Ltd., (Reference: Jarvis MF, Honore P, Shieh CC, Chapman M, Joshi S, Zhang XF, Kort M, Carroll W, Marron B, Atkinson R, Thomas J, Liu D, Krambis M, Liu Y, McGaraughty S, Chu K, Roeloffs R, Zhong C, Mikusa JP, Hernandez G, Gauvin D, Wade C, Zhu C, Pai M, Scanio M, Shi L, Drizin I, Gregg R, Matulenko M, Hakeem A, Gross M, Johnson M, Marsh K, Wagoner PK, Sullivan JP, Faltynek CR, Krafte DS. A-803467, a potent and selective Nav1.8 sodium channel blocker, attenuates neuropathic and inflammatory pain in the rat. Proc Natl Acad Sci U S A. 2007 May 15;104(20):8520-5. doi: 10.1073/pnas.0611364104. Epub 2007 May 2. PMID: 17483457; PMCID: PMC1895982.), gene information Nav1.1: NM_006920; Nav1.2: NM_001040142; Nav1.3: NM_006922; Nav1.4: NM_000334; Nav1.5: NM198056; Nav1.6: NM014191; Nav1.7: […]. • 2.2 Compounds: Dissolved in DMSO, with sample concentration prepared at 30 µM. • 3. Experimental methods • 3.1 Cell culture • (1) Maintenance medium: CHO cells were cultured in HAM'S/F-12 medium containing 10% fetal bovine serum, 100 µg/mL Zeocin, and 10 µg/mL Blasticidin, under conditions of 37°C incubation temperature and 5% carbon dioxide concentration. HEK-293 cells were cultured in DMEM medium containing 10% fetal bovine serum and 800 µg/mL G418; the culture temperature was 37°C, and the carbon dioxide concentration was 5%. • (2) Cell passage: The old medium was removed, and the cells were washed once with PBS, then 1 mL of 0.25%-Trypsin-EDTA solution was added and incubated at 37°C for approximately 1.5 min. When the cells were detached from the bottom of the dish, about 5 mL of preheated complete medium at 37°C was added. […]

[3] = target: Nav1.1 (Homo sapiens, UniProt P35498); experiment: Sodium channel selectivity test, patch-clamp, Nav1.1; format: cell-based; conditions: read-out: Nav1.1 Inhibition rate (%)
From the text: as §1

[4] = target: Nav1.5 (Homo sapiens, UniProt Q14524); experiment: Sodium channel selectivity test, patch-clamp, Nav1.5; format: cell-based; conditions: read-out: Nav1.5 Inhibition rate (%)
From the text: as §1

[5] = tested on: KM mouse acetic acid-induced writhing model; experiment: Analgesic efficacy in mouse acetic acid-induced writhing model; format: in vivo, KM mice; conditions: single dose, writhes within 20 min, p < 0.05 vs solvent control
Protocol: 1. Objective: The analgesic efficacy of the example was evaluated in a KM mouse acetic acid-induced writhing model. 2. Experimental methods: 2.1 Experimental drugs: The compounds in examples of the present disclosure and reference compound were self-prepared. […] It was prepared using a solvent (Tween 80 + 0.5% MC (v:v = 1:99 pH = 3)). 2.2 Experimental animals: Male KM mice were purchased from Hubei Provincial Center for Disease Control and Prevention (Hubei Provincial Academy of Preventive Medicine), weighing 20 to 25 g at the time of purchase. 2.3 Experimental grouping: Table 6: Efficacy test grouping of compounds in the acetic acid-induced writhing model
2.5 Data collection and analysis • Data were collected using Excel software. • Data were analyzed using Prism (Graph pad software, Inc.) software. 3.

[6] = target: Nav1.6 (Homo sapiens, UniProt Q9UQD0); experiment: Sodium channel selectivity test, patch-clamp, Nav1.6; format: cell-based; conditions: read-out: Nav1.6 Inhibition rate (%)
From the text: as §1

[7] = 30 mg/kg intragastric, second group set (solvent control 20.11 ± 3.55)
[8] = 100 mg/kg intragastric, second group set (solvent control 20.11 ± 3.55)

Chain of Nav1.6 (Q9UQD0 whole entry): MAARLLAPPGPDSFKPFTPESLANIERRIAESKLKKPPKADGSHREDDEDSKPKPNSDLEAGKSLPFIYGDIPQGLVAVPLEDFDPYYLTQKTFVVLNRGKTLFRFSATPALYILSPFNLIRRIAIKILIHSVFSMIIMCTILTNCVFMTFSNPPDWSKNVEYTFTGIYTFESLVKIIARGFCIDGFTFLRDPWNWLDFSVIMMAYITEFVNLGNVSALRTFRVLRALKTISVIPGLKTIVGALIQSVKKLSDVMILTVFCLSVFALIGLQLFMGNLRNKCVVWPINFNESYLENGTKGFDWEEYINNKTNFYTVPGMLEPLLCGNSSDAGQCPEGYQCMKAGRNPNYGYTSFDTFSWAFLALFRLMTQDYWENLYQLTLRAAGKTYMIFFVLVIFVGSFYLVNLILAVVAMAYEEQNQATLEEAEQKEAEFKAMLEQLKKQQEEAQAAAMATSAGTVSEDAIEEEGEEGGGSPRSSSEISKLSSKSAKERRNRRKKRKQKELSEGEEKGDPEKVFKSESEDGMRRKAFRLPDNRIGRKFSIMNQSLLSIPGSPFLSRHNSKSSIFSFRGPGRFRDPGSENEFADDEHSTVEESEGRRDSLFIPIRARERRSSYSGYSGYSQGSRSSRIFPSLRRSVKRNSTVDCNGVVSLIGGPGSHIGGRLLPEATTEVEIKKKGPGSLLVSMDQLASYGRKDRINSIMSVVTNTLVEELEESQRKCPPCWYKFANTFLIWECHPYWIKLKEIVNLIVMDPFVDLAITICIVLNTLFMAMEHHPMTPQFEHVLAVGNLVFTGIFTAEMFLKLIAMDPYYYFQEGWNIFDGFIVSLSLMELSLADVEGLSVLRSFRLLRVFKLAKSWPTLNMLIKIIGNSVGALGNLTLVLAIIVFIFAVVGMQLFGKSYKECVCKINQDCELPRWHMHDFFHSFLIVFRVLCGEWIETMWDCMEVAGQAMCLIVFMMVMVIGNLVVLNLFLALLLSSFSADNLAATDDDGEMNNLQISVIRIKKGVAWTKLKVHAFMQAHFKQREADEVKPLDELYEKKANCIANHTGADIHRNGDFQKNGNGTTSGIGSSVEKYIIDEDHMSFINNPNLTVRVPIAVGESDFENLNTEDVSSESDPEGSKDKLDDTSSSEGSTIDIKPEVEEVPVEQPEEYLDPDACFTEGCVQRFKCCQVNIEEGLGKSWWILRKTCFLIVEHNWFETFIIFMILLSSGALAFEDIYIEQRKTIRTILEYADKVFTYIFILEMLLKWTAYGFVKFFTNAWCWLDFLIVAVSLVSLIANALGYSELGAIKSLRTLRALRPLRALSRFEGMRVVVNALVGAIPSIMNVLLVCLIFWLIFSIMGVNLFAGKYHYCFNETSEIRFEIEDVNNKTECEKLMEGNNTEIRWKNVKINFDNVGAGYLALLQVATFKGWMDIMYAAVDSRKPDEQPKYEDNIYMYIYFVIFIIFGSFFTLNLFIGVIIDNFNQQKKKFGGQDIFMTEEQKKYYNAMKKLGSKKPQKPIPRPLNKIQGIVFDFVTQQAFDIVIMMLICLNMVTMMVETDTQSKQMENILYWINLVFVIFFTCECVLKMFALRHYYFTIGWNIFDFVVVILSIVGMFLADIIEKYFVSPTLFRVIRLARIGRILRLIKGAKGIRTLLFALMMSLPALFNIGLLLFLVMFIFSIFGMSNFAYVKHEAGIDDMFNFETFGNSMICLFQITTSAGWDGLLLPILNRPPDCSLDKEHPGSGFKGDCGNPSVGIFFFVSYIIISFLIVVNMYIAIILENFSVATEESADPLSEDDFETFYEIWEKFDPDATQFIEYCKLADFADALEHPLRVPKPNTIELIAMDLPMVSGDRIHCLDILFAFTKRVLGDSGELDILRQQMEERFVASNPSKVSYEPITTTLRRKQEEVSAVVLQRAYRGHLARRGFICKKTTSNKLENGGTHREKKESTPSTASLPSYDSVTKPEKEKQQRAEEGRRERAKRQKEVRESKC
Chain of Nav1.2 (Q99250 whole entry): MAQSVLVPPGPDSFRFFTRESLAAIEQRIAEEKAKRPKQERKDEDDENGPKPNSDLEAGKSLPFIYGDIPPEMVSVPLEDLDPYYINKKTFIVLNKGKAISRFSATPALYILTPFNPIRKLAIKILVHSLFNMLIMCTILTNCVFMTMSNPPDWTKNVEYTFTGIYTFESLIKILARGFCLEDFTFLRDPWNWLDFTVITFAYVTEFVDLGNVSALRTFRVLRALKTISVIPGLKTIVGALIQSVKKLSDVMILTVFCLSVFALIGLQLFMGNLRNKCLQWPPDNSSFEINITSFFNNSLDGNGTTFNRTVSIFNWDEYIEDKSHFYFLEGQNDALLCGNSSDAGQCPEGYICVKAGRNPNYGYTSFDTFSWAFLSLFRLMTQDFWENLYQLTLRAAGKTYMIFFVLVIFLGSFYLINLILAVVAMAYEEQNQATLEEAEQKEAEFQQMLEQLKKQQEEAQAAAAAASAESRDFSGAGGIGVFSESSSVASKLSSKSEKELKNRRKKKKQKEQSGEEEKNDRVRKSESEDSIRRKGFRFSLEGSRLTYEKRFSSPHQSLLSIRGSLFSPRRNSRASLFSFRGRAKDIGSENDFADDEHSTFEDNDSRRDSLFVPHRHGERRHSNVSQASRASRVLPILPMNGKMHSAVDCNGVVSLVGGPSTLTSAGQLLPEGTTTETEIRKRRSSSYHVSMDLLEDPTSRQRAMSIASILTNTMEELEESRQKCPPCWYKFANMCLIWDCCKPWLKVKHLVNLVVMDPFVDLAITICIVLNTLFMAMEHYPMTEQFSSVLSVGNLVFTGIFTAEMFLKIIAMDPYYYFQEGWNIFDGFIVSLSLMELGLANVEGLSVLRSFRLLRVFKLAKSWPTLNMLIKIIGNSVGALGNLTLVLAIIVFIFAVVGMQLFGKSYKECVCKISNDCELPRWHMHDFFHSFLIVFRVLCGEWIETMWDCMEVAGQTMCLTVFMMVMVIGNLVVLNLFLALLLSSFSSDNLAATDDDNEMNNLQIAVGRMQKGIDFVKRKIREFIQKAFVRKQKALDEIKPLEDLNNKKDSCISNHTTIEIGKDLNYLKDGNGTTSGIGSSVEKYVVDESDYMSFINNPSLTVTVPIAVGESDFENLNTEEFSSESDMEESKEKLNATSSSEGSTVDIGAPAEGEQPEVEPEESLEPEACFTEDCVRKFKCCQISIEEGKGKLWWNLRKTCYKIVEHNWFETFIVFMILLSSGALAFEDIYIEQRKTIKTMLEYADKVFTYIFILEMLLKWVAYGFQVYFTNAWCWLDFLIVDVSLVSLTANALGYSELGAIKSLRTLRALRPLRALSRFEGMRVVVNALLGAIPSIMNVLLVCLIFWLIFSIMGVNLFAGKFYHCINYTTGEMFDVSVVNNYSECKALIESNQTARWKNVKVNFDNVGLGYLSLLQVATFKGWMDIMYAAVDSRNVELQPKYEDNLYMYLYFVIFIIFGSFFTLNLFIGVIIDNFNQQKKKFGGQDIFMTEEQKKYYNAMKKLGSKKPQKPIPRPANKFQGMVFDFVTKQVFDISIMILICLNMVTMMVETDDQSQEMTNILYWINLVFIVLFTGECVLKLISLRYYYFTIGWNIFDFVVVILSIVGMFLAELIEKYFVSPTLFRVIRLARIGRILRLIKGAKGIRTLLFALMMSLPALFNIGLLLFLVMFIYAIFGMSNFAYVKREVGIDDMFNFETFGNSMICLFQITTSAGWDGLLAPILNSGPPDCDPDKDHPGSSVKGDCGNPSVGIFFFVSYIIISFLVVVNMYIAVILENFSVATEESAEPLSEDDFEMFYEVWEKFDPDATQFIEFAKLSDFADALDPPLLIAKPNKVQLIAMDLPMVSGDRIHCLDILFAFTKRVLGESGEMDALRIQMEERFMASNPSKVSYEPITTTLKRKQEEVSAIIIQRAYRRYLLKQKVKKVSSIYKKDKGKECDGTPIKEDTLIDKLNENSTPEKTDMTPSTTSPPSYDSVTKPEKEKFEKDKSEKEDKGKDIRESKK

Compound: COCCOc1c([C@H]2[C@H](C(=O)Nc3ccc(F)c(C(=N)NO)c3)O[C@@](C)(C(F)(F)F)[C@H]2C)ccc(F)c1F [Example 10]
AUC(0-t) at 24 h ([1]; in vivo, read-out: Area under the curve AUC0-t): 4650 ± 1600 ng·h/mL | half-life ([1]; in vivo): 96 ± 16.2 min | Cmax ([1]; in vivo): 1240 ± 326 ng/mL | Tmax ([1]; in vivo): 52.8 ± 15 min | inhibition at 30 µM [2]: 32.8% | inhibition at 30 µM [3]: 28.4% | inhibition at 30 µM ([4]; human, cho/hek293 cells): 51.7% | Number of writhes ([5]; 30 mg/kg intragastric, first group set (solvent control 16.11 ± 5.84)): 12.10 ± 6.10 | inhibition at 30 µM [6]: 36%

Compound: C[C@H]1[C@@H](c2ccc(F)c(F)c2OC2COC2)[C@H](C(=O)Nc2ccc(F)c(C(=N)NO)c2)O[C@@]1(C)C(F)(F)F [Example 11]
AUC(0-t) ([1]; read-out: Area under the curve AUC0-t): 2080 ± 201 ng·h/mL | half-life [1]: 51 ± 4.2 min | Cmax [1]: 1040 ± 260 ng/mL | Tmax [1]: 45 ± 30 min | inhibition at 30 µM [2]: 16% | inhibition at 30 µM [3]: 1.96% | inhibition at 30 µM ([4]; cho/hek293 cells): 9.11% | Number of writhes [5, 7]: 11.56 ± 5.15 | Number of writhes [5, 8]: 8.38 ± 6.12 | inhibition at 30 µM [6]: 19.5%

AUC(0-t) ([1]; male, read-out: Area under the curve AUC0-t): 608 ± 362 ng·h/mL | half-life ([1]; male): 79.2 ± 10.2 min | Cmax ([1]; male): 216 ± 124 ng/mL | Tmax ([1]; male): 37.8 ± 15 min | inhibition at 30 µM [2]: 53.6% | inhibition at 30 µM [3]: 57.7% | inhibition at 30 µM [6]: 42.9%
Compound: COc1c([C@H]2[C@H](C(=O)Nc3ccnc(C(N)=O)c3)O[C@@](C)(C(F)(F)F)[C@H]2C)ccc(F)c1F [Reference compound, reference compound]
inhibition at 30 µM ([4]; human): 72.2% | Number of writhes [5, 7]: 11.86 ± 3.53 | Number of writhes [5, 8]: 10.13 ± 3.64
